Measurements reported in ChEMBL document CHEMBL5512619, “Anticancer mechanism of coumarin-based derivatives” (Eur J Med Chem, 2024).

Tests used:
[1] = tested on: SK-OV-3; assay: Antiproliferative activity against human SK-OV-3 cells measured after 21 hrs by MTT assay; type: functional, cell-based; conditions: SK-OV-3, 21 h
[2] = biological target: Albumin (Homo sapiens, UniProt P02768); assay: Reversible binding affinity to human serum albumin
[3] = biological target: Steryl-sulfatase (Homo sapiens, UniProt P08842); assay: Inhibition of STS in human placental microsome; type: microsomes
[4] = biological target: T1, Vascular endothelial growth factor receptor 2 (Homo sapiens, UniProt P35968); assay: Inhibition of human VEGFR2
T1 sequence (P35968 whole entry): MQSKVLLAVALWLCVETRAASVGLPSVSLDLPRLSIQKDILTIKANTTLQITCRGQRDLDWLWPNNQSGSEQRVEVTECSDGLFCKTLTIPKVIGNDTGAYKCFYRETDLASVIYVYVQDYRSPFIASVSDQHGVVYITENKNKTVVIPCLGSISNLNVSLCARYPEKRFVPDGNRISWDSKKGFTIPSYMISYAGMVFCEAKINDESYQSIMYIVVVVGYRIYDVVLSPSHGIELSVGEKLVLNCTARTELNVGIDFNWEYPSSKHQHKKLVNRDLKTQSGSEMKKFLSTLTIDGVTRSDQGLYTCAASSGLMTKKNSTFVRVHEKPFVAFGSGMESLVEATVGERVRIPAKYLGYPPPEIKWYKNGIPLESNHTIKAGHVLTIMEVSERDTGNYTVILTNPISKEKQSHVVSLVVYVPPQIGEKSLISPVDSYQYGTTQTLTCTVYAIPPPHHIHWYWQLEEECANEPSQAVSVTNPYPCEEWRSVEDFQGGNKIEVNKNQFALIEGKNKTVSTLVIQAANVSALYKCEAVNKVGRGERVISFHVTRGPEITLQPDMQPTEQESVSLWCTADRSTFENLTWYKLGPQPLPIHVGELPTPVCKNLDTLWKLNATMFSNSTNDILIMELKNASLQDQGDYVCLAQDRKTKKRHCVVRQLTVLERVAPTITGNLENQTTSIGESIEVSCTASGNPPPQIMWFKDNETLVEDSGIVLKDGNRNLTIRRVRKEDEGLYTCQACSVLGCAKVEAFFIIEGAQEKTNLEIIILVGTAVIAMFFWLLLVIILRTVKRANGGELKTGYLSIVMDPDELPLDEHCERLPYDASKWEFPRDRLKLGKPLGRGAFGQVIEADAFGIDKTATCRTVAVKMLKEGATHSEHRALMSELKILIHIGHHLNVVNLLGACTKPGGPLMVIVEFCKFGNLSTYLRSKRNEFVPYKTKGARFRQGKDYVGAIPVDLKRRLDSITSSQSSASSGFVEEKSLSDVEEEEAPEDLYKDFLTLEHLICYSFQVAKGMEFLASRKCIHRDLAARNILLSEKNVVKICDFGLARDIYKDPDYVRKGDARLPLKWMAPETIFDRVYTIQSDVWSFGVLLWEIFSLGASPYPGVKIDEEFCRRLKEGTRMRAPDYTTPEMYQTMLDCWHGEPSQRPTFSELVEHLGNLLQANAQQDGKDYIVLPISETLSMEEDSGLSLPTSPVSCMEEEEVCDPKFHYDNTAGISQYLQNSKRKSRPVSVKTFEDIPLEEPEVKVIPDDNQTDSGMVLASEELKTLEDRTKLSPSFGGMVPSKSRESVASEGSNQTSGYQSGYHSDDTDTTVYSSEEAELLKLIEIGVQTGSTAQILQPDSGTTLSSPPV

[5] = biological target: T2, Carbonic anhydrase 1 (Homo sapiens, UniProt P00915); assay: Binding affinity to human CA1 assessed as inhibition constant incubated for 6 hrs by phenol red dye based stopped flow CO2 hydration assay
T2 sequence (P00915 whole entry): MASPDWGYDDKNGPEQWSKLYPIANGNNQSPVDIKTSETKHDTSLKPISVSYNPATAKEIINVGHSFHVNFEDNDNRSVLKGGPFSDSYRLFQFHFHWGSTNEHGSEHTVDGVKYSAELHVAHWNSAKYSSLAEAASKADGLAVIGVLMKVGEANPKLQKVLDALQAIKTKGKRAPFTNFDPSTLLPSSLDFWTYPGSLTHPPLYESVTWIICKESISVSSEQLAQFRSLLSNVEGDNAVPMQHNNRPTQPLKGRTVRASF

[6] = tested on: HCT-116; assay: Antiproliferative activity against human HCT-116 cells measured after 24 hrs by MTT assay; type: functional, cell-based; conditions: HCT-116, 24 h
[7] = tested on: A549; assay: Antiproliferative activity against human A549 cells measured after 24 hrs by MTT assay; type: functional, cell-based; conditions: A549, 24 h
[8] = tested on: HepG2; assay: Antiproliferative activity against human HepG2 cells measured after 24 hrs by MTT assay; type: functional, cell-based; conditions: HepG2, 24 h
[9] = tested on: HeLa; assay: Cytotoxicity against human HeLa cells incubated for 72 hrs by MTT assay; type: functional, cell-based
[10] = Cytotoxicity against human Lu1 cells incubated for 72 hrs by MTT assay; type: functional, cell-based; conditions: Lu1, 72 h
[11] = biological target: Receptor tyrosine-protein kinase erbB-2 (Homo sapiens, UniProt P04626); assay: Inhibition of HER2 (unknown origin)
Chain of Receptor tyrosine-protein kinase erbB-2 (P04626 whole entry): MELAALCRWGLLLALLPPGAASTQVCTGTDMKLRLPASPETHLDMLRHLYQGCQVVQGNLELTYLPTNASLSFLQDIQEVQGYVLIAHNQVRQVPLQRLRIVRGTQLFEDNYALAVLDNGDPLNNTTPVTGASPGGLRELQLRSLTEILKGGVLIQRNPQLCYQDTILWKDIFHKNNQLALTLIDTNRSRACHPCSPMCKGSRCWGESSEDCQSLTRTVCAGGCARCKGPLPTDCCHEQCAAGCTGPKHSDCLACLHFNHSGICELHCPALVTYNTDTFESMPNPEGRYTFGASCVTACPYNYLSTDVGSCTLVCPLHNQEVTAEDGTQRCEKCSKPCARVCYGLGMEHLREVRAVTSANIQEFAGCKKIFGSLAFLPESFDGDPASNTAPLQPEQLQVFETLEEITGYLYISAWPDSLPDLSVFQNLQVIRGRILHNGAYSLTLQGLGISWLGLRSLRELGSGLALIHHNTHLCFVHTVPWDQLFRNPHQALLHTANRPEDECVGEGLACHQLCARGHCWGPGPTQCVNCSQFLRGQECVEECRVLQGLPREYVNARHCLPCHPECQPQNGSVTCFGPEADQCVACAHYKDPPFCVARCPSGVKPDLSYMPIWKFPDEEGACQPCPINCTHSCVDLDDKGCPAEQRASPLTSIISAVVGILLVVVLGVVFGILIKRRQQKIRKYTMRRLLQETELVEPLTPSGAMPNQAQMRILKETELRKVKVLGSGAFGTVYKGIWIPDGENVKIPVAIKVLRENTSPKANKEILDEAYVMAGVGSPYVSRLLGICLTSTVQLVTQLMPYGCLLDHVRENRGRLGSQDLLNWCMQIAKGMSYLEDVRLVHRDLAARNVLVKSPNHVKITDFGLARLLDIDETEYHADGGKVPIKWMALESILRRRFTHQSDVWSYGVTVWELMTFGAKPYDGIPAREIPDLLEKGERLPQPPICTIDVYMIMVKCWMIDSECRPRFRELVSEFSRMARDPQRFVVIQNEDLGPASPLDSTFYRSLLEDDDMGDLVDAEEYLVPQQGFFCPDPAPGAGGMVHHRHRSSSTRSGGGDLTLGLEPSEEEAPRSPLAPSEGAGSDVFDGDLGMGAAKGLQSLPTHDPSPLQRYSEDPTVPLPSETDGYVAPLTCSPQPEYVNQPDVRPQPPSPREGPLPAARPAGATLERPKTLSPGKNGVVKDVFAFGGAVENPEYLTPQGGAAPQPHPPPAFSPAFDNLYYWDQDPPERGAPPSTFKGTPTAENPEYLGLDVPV

[12] = tested on: HepG2; assay: Cytotoxicity against human HepG2 cells incubated for 72 hrs by MTT assay; type: functional, cell-based; conditions: HepG2, 72 h
[13] = biological target: Epidermal growth factor receptor (Homo sapiens, UniProt P00533); assay: Inhibition of EGFR (unknown origin)
Chain of Epidermal growth factor receptor (P00533 whole entry): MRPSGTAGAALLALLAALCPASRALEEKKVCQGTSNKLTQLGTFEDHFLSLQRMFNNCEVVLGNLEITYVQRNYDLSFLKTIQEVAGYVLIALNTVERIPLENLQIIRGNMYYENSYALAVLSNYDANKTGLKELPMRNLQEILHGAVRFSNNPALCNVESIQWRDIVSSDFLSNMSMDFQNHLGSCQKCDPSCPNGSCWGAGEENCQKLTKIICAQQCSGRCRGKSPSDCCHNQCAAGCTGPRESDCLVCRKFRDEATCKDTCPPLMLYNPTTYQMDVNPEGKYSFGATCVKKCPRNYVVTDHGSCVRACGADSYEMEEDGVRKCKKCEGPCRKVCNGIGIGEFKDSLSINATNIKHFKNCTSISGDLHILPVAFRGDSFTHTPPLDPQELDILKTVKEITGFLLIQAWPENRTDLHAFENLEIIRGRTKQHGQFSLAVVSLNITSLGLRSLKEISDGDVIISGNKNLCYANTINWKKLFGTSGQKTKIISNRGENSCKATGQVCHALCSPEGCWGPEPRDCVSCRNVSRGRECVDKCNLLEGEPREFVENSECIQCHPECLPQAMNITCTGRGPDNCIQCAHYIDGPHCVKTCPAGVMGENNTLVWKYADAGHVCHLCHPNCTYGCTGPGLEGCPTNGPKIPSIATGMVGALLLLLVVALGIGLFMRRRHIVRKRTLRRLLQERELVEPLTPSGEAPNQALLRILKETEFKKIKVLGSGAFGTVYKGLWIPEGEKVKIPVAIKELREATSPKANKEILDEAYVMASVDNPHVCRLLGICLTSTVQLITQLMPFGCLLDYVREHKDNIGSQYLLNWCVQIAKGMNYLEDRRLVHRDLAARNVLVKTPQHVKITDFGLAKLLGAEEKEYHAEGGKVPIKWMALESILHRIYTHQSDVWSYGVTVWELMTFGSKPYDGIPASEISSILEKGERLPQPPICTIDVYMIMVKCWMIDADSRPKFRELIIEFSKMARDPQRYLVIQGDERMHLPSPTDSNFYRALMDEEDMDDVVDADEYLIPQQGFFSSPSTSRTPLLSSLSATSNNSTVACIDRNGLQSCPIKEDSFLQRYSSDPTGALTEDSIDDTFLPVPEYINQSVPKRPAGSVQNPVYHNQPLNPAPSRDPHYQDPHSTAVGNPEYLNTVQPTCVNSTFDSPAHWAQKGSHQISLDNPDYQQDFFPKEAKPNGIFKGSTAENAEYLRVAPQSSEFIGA

[14] = tested on: HepG2; assay: Cytotoxicity against human HepG2 cells; type: functional, cell-based
[15] = Cytotoxicity against human Lu1 cells; type: functional, cell-based
[16] = tested on: HeLa; assay: Cytotoxicity against human HeLa cells; type: functional, cell-based
[17] = tested on: HCT-116; assay: cells; conditions: Homo sapiens, HCT-116, 72 h
Description: Antiproliferative activity against human HCT-116 cells measured after 72 hrs by SRB method

[18] = tested on: MCF7; assay: Antiproliferative activity against human MCF7 cells measured after 72 hrs by SRB method; type: functional, cell-based; conditions: MCF7, 72 h
[19] = tested on: HeLa; assay: Antiproliferative activity against human HeLa cells measured after 72 hrs by SRB method; type: functional, cell-based
[20] = tested on: HepG2; assay: Antiproliferative activity against human HepG2 cells measured after 72 hrs by SRB method; type: functional, cell-based; conditions: HepG2, 72 h
[21] = biological target: T1, Vascular endothelial growth factor receptor 2; assay: Inhibition of VEGFR2 (unknown origin)
[22] = tested on: MCF7; assay: Cytotoxicity against human MCF-7 cells; type: functional, cell-based
[23] = Inhibition of DNA topoisomerase II (unknown origin)
[24] = tested on: MCF7; assay: Cytotoxicity against human MCF-7 cells relative to control; type: functional
[25] = tested on: HeLa; assay: Antiproliferative activity against human HeLa cells incubated for 48 hrs by MTT assay; type: functional, cell-based
[26] = tested on: A549; assay: Antiproliferative activity against human A549 cells incubated for 48 hrs by MTT assay; type: functional, cell-based; conditions: A549, 48 h
[27] = biological target: T2, Carbonic anhydrase 1; assay: Binding affinity to human CA1 assessed as inhibition constant incubated for 10 mins by phenol red dye based stopped flow CO2 hydration assay
[28] = biological target: Carbonic anhydrase 12 (Homo sapiens, UniProt O43570); assay: Binding affinity to human CA12 assessed as inhibition constant incubated for 10 mins by phenol red dye based stopped flow CO2 hydration assay
Chain of Carbonic anhydrase 12 (O43570 whole entry): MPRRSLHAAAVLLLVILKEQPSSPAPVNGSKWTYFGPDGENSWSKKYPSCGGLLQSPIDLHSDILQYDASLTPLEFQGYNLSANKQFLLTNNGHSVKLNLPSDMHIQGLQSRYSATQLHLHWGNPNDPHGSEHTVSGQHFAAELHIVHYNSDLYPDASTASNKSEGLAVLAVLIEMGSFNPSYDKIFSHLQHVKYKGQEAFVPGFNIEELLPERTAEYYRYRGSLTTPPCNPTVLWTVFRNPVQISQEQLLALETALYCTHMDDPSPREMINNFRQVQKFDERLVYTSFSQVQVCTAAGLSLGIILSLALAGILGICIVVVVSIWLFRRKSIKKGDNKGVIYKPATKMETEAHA

[29] = biological target: Carbonic anhydrase 2 (Homo sapiens, UniProt P00918); assay: Binding affinity to human CA2 assessed as inhibition constant incubated for 10 mins by phenol red dye based stopped flow CO2 hydration assay
[30] = biological target: Carbonic anhydrase 9 (Homo sapiens, UniProt Q16790); assay: Binding affinity to human CA9 assessed as inhibition constant incubated for 10 mins by phenol red dye based stopped flow CO2 hydration assay
[31] = tested on: MDA-MB-231; assay: Antiproliferative activity against human MDA-MB-231 cells incubated for 96 hrs by MTT assay; conditions: MDA-MB-231, 96 h
[32] = tested on: T98G; assay: Induction of apoptosis in human T98G cells relative to control; type: functional
[33] = tested on: MCF7; assay: Antiproliferative activity against human MCF7 cells measured after 72 hrs by MTT assay; type: functional, cell-based; conditions: MCF7, 72 h
[34] = tested on: HepG2; assay: Induction of apoptosis in human HepG2 cells assessed as necrotic cells at 2 times IC50 incubated for 12 hrs by annexin V-FITC and PI staining based flow cytometry analysis relative to control; type: functional
[35] = tested on: HepG2; assay: Induction of apoptosis in human HepG2 cells assessed as necrotic cells at 1 time IC50 incubated for 12 hrs by annexin V-FITC and PI staining based flow cytometry analysis relative to control; type: functional

Chain of Albumin (P02768 whole entry): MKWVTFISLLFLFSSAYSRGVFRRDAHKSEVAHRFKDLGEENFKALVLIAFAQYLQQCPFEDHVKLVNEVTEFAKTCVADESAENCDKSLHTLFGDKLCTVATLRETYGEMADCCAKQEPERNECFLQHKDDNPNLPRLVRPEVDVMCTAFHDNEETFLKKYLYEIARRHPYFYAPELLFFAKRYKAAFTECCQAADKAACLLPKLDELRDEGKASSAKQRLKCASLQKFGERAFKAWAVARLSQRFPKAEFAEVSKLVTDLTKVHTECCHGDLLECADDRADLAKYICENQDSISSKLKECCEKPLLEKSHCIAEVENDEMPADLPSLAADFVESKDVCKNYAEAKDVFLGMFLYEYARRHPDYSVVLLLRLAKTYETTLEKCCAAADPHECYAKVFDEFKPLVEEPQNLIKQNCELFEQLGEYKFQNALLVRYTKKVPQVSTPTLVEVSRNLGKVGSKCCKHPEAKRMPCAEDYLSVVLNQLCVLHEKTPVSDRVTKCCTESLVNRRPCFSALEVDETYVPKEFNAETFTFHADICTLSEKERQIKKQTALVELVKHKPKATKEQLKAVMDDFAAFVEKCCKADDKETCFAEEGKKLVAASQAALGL

O=c1ccc2ccc(O[C@@H]3O[C@H](CO[C@@H]4OC[C@](O)(CO)[C@H]4O)[C@@H](O)[C@H](O)[C@H]3O)cc2o1
IC50 [1]: > 100 µM

Cc1cc(=O)oc2cc(NCc3ccccc3O)ccc12
Kd [2]: 30 nM

COc1cc2oc(=O)ccc2cc1O[C@@H]1O[C@H](CO)[C@@H](O)[C@H](O)[C@H]1O
IC50 [1]: > 100 µM

Cc1c(Cc2ccccc2)c(=O)oc2cc(OS(N)(=O)=O)ccc12
IC50 [3]: 32 nM

CCCCCCc1c(C)c2ccc(OS(N)(=O)=O)cc2oc1=O
IC50 [3]: 8 nM

CN(C)c1ccc(C2CC(c3c(O)c4ccccc4oc3=O)=NN2c2nc(-c3ccccc3)c(/N=N/c3ccc(Cl)cc3)s2)cc1 (configuration not stated)
IC50 [4]: 34 nM

Cc1cc(=O)oc2cc(OCc3cn(CCCCCCCCCCCCOc4ccc5ccc(=O)oc5c4)nn3)ccc12
Ki [5]: > 10 µM

CC1SC(N2N=C(c3cc4ccccc4oc3=O)CC2c2ccc(N(C)C)cc2)=NC1=O (configuration not stated)
IC50 [4]: 34 nM

COc1ccc(-c2cc(-c3cc4ccccc4oc3=O)nc3nc(C)[nH]c(=O)c23)cc1
IC50 [6]: 1100 nM
IC50 [7]: 1100 nM
IC50 [8]: 1100 nM

COc1ccc(-c2cc(-c3cc4ccccc4oc3=O)nc(N)c2C(N)=O)cc1
IC50 [6]: 1100 nM
IC50 [7]: 1100 nM
IC50 [8]: 1100 nM

COc1ccc(-c2cc(-c3cc4ccccc4oc3=O)nc(NC(C)=O)c2C#N)cc1
IC50 [6]: 1100 nM
IC50 [7]: 1100 nM
IC50 [8]: 1100 nM

Cc1nc(N2N=C(c3cc4ccccc4oc3=O)CC2c2ccc(N(C)C)cc2)sc1/N=N/c1ccc(Cl)cc1 (configuration not stated)
IC50 [4]: 34 nM

CC(C)(O[C@@H]1O[C@H](CO)[C@@H](O)[C@H](O)[C@H]1O)[C@@H]1Cc2cc3ccc(=O)oc3cc2O1
IC50 [1]: > 100 µM

Cc1cc(=O)oc2cc(NCc3cc(I)cc(I)c3O)ccc12
Kd [2]: 30 nM

CC(=O)OC[C@H]1O[C@@H](N(C(C)=O)C2=NN(C(C)=O)C(c3cc(=O)oc4ccc(OCCC(C)C)cc34)S2)[C@H](OC(C)=O)[C@@H](OC(C)=O)[C@@H]1OC(C)=O (some centres not stated)
IC50 [9]: 1180 nM
IC50 [10]: 1180 nM
IC50 [11]: 130 nM
IC50 [12]: 1180 nM
IC50 [13]: 220 nM

CC(=O)OC[C@H]1O[C@@H](n2c(-c3ccccc3)cs/c2=N\N=C\c2cc(=O)oc3ccc(OCC(C)C)cc23)[C@H](OC(C)=O)[C@@H](OC(C)=O)[C@@H]1OC(C)=O
IC50 [11]: 150 nM
IC50 [14]: 1180 nM
IC50 [15]: 1180 nM
IC50 [13]: 150 nM
IC50 [16]: 1180 nM

Cc1c2c3c(ccc(C)c3oc1=O)[C@](C)(O)CO2
IC50 [17]: 3.95 µM
IC50 [18]: 3.95 µM
IC50 [19]: 3.95 µM
IC50 [20]: 3.95 µM

CCCCCOc1ccc2oc(=O)cc(C3SC(N(C(C)=O)[C@@H]4O[C@H](COC(C)=O)[C@@H](OC(C)=O)[C@H](OC(C)=O)[C@H]4OC(C)=O)=NN3C(C)=O)c2c1 (some centres not stated)
IC50 [9]: 1180 nM
IC50 [10]: 1180 nM
IC50 [11]: 130 nM
IC50 [12]: 1180 nM
IC50 [13]: 220 nM

CC(=O)OC[C@H]1O[C@@H](N(C(C)=O)C2=NN(C(C)=O)C(c3cc(=O)oc4cc(OCC(C)C)ccc34)S2)[C@H](OC(C)=O)[C@@H](OC(C)=O)[C@@H]1OC(C)=O (some centres not stated)
IC50 [9]: 1180 nM
IC50 [10]: 1180 nM
IC50 [11]: 130 nM
IC50 [12]: 1180 nM
IC50 [13]: 220 nM

CC(=O)OC[C@H]1O[C@@H](n2c(-c3ccccc3)cs/c2=N\N=C\c2cc(=O)oc3cc(OCCC(C)C)ccc23)[C@H](OC(C)=O)[C@@H](OC(C)=O)[C@@H]1OC(C)=O
IC50 [11]: 150 nM
IC50 [14]: 1180 nM
IC50 [15]: 1180 nM
IC50 [13]: 150 nM
IC50 [16]: 1180 nM

Cc1cc(=O)oc2cc(NCc3cc(Br)cc(Br)c3O)ccc12
Kd [2]: 30 nM

COC(=O)C(Cc1ccc(O)cc1)NC(=O)c1cc2ccccc2oc1=O (configuration not stated)
IC50 [21]: 34.2 µM
IC50 [22]: 4.98 µM
IC50 [23]: 8.6 µM
Activity [24]: 97.82%

COC(=O)C(CCSC)NC(=O)CCNC(=O)c1cc2ccccc2oc1=O (configuration not stated)
IC50 [21]: 23.6 µM
IC50 [22]: 5.85 µM
IC50 [23]: 4.1 µM
Activity [24]: 97.35%

CCOc1ccc2oc(=O)cc(C3SC(N(C(C)=O)[C@@H]4O[C@H](COC(C)=O)[C@H](OC(C)=O)[C@H](OC(C)=O)[C@H]4OC(C)=O)=NN3C(C)=O)c2c1 (some centres not stated)
IC50 [9]: 1180 nM
IC50 [10]: 1180 nM
IC50 [11]: 130 nM
IC50 [12]: 1180 nM
IC50 [13]: 220 nM

COc1ccc2oc(=O)cc(COc3c(C)occc3=O)c2c1
IC50 [25]: 2470 nM
IC50 [26]: 2470 nM

CC(=O)OC[C@H]1O[C@@H](N(C(C)=O)C2=NN(C(C)=O)C(c3cc(=O)oc4cc(OCCC(C)C)ccc34)S2)[C@H](OC(C)=O)[C@@H](OC(C)=O)[C@@H]1OC(C)=O (some centres not stated)
IC50 [9]: 1180 nM
IC50 [10]: 1180 nM
IC50 [11]: 130 nM
IC50 [12]: 1180 nM
IC50 [13]: 220 nM

CCCCOc1ccc2oc(=O)cc(C3SC(N(C(C)=O)[C@@H]4O[C@H](COC(C)=O)[C@@H](OC(C)=O)[C@H](OC(C)=O)[C@H]4OC(C)=O)=NN3C(C)=O)c2c1 (some centres not stated)
IC50 [9]: 1180 nM
IC50 [10]: 1180 nM
IC50 [11]: 130 nM
IC50 [12]: 1180 nM
IC50 [13]: 220 nM

CCOc1ccc2c(C3SC(N(C(C)=O)[C@@H]4O[C@H](COC(C)=O)[C@H](OC(C)=O)[C@H](OC(C)=O)[C@H]4OC(C)=O)=NN3C(C)=O)cc(=O)oc2c1 (some centres not stated)
IC50 [9]: 1180 nM
IC50 [10]: 1180 nM
IC50 [11]: 130 nM
IC50 [12]: 1180 nM
IC50 [13]: 220 nM

Cc1cc(=O)oc2cc(NCc3cc([N+](=O)[O-])ccc3O)ccc12
Kd [2]: 30 nM

Cc1ccc(C(=O)Nc2ccc3c(c2)C=CS(=O)(=O)O3)cc1S(=O)(=O)N1C[C@@H](C)O[C@@H](C)C1
Ki [27]: 99.4 nM
Ki [28]: 30.6 nM
Ki [29]: 99.4 nM
Ki [30]: 30.6 nM

Cc1ccc2oc(=O)cc(COc3c(C)occc3=O)c2c1
IC50 [25]: 2470 nM
IC50 [26]: 2470 nM

Cc1cc(=O)oc2cc(NCc3cc(Cl)cc(Cl)c3O)ccc12
Kd [2]: 30 nM

O=C(Nc1ccc2c(c1)C=CS(=O)(=O)O2)c1ccc(F)c(S(=O)(=O)N2CCCCC2)c1
Ki [27]: 99.4 nM
Ki [28]: 30.6 nM
Ki [29]: 99.4 nM
Ki [30]: 30.6 nM

O=c1cc(O)c2ccccc2o1 [4-HYDROXYCOUMARINS]
IC50 [31]: > 100000 nM
Activity [32]: 15%

O=c1ccc2ccc(O)c(O)c2o1 [DAPHNETIN]
IC50 [33]: 73 µM

COc1cccc2c1C(=O)c1c(O)c3c(c(O)c1C2=O)C[C@@](O)(C(=O)CO)C[C@@H]3O[C@H]1C[C@H](N)[C@H](O)[C@H](C)O1 [DOXORUBICIN]
IC50 [31]: 600 nM
IC50 [23]: 9.65 µM

O=c1ccc2cc(O)c(O)cc2o1 [ESCULETIN]
IC50 [33]: 193 µM

CC(C)(O[C@@H]1O[C@H](CO)[C@@H](O)[C@H](O)[C@H]1O)[C@H]1Cc2cc3ccc(=O)oc3cc2O1 [NODAKENIN]
IC50 [1]: > 100 µM

O=c1ccc2ccc(O[C@@H]3O[C@H](CO)[C@@H](O)[C@H](O)[C@H]3O)cc2o1 [SKIMMIN]
IC50 [1]: > 100 µM

COc1c2c(cc3oc(=O)ccc13)OC(C)(C)C=C2 [XANTHOXYLETIN]
Activity [34]: 2.9%
Activity [35]: 2.5%
